Assays:
RASMC [1] = assay: Northern blotting of atRA-induced retinoid-response gene mRNA in cultured RASMC; settings: for expression of this gene set (the 14 atRA-inducible clones): Northern blot; for Peak Fold Induction: 2×10^−6 mol/L atRA
Method: Rat aortic smooth muscle cells (“RASMC”) were stimulated with atRA for the indicated times and then processed for total RNA isolation and Northern blotting. Two duplicate blots were then sequentially hybridized to each of the 14 cDNAs. Scanning densitometry was performed at each time point and normalized to the corresponding GAPDH signal to ascertain the peak mRNA induction value listed in Table 2.
Cultured rat aortic SMC (RASMC) were derived from aortas of male Sprague-Dawley rats by a combined explant-enzymatic digestion procedure as described previously (Miano et al., “Expression of the Smooth Muscle Cell Calponin Gene Marks the Early Cardiac and Smooth Muscle Cell Lineages During Mouse Embryogenesis,” J. Biol. Chem. 271:7095-7103 (1996), which is hereby incorporated by reference in its entirety). These cells were grown in Dulbecco's Modified Eagle's Medium (DMEM) supplemented with 10% fetal bovine serum (FBS), 2 mM L-glutamine and antibiotics. […] Unless indicated otherwise, cells were grown on 100-mm dishes and treated with either 2×10^−mol/L all-trans-retinoic acid (atRA) or an equal volume of dimethylsulfoxide (DMSO) for various times when culture was 70-80% confluent.
Total RNA from cultured RASMC and rat tissues was isolated by the acid phenol-guanidinium isothiocyanate method (Chomczynski et al., “Single-Step Method of RNA Isolation by Acid Guanidinium Thiocyanate-Phenol-Chloroform Extraction,” Anal. Biochem. 162:156-159 (1987), which is hereby incorporated by reference in its entirety). […] Independent samples of RNA were also obtained from RASMC treated for 3, 6, 12, 24, 48, 72, 96, and 120 hr with 2×10^−6 mol/L atRA to obtain a temporal pattern of expression for each positive clone. In some experiments the effects of cycloheximide (CHX, 2.5 μg/ml) on atRA-induced gene expression were examined. […] Total RNA was size-fractionated in 1.2% agarose-formaldehyde gels, transferred to nylon membranes and then hybridized and washed following standard procedures (ExpressHyb™, CLONTECH, Palo Alto, Calif.). A rat glyceraldehyde phosphate dehydrogenase (GAPDH) or 18 S probe was used as an internal control for RNA loading. Autoradiography was performed and exposure times varied so that band intensities could be reliably quantitated using NIH Image 1.60 analysis software.

RASMC [2] = assay: Cycloheximide (CHX) effects on atRA inducible gene expression, Northern blot; format: cell-based, rat; settings: 2.5 μg/ml CHX
Method: All 4 genes show atRA-induced mRNA expression after 24 hr stimulation. […] SALF and Src-Suppressed C Kinase Substrate (“SSeCKS”) mRNA induction, however, is protein synthesis-independent. Refer to Table 2 for a complete summary of the CHX sensitivity studies.
To determine whether atRA-induced gene expression required de novo protein synthesis, rat aorta smooth muscle cell tissue was incubated with atRA in the absence or presence of cycloheximide (“CHX”) and then measured the expression of each atRA-inducible gene. […] On the other hand, atRA-induced Stoned B/TFIIAα/β-like factor (“SALF”) and Src Suppressed C Kinase Substrate (“SSeCKS”) mRNA were not blocked with CHX. In fact, there was a slight super-induction of these genes with CHX, shown in FIG. 6, which is a common characteristic of immediate early genes.

RASMC [3] = assay: RISC mRNA expression after atRA, Northern blotting, RASMC; format: cell-based, rat
Method: FIGS. 9A-B show the induction of retinoid inducible serine carboxypeptidase (“RISC”) mRNA expression by atRA in a time-dependent manner. Total RNA isolated from RASMC treated with 2.0 μM atRA for 0, 3, 6, 12, 24, 48, 72, 96, 120 h was analyzed by Northern blotting with a rat RISC cDNA probe. […] Blots were also probed with GAPDH as a control for equal loading for each lane. Data shown are representative of two independent experiments.
(§1) 10-20 μg of total RNA from RASMC, PAC-1 SMC, hCASMC or rat tissues was fractionated on 1.1% agarose gel in the presence of 0.66 mol/L formaldehyde, transferred to nylon membrane, and hybridized with a 405 nt RISC cDNA probe labeled with α-^32P-dCTP. For human tissue Northern blotting, a Human Multiple Tissue Northern Blot was obtained from CLONTECH and hybridized with a human RISC DNA probe, cloned from a human BAC (AC007114; obtained from Research Genetics, Inc., Huntsville, Ala.) by PCR. Hybridizations were carried out in Rapid-hyb buffer (Amersham Life Science, Piscataway, N.J.) or Expresshyb Hybridization Solution (CLONTECH, Palo Alto, Calif.) containing labeled probe (˜2×10^6 cpm/ml) at 62-68° C. for 1-2 h or overnight, depending on the probe used. The blots were then washed under stringent conditions and exposed to Kodak XAR films for different lengths of time. Housekeeping genes used as internal controls for equal RNA loading included glyceraldehyde 3-phosphate dehydrogenase (GAPDH), 18 S rRNA, and β-actin.

[4] = test system: de novo protein synthesis; assay: CHX effect on de novo protein synthesis and cytotoxicity; format: cell-based; settings: CHX 2.5 μg/ml
Method: In some experiments the effects of cycloheximide (CHX, 2.5 μg/ml) on atRA-induced gene expression were examined.

hCASMC = assay: RISC mRNA expression after atRA, Northern blotting, hCASMC; format: cell-based, human
Method: as §1

PAC-1 SMC = assay: RISC mRNA expression after atRA, Northern blotting, PAC-1 SMC; format: cell-based, rat
Method: as §1

PAC1 SMC = assay: Growth of PAC1 SMC stably transfected with RISC (cell counts over 5 days); format: cell-based, rat; settings: three stably transfected RISC cell lines, 10% FBS, vs empty vector (mock)
Method: Rat or human RISC is cloned into a suitable mammalian expression plasmid including, but not limited to, pEF1/V5-His, and verified for expression by Western blotting (using an antibody that binds the His tag of the RISC-His fusion protein) of transiently-transfected cells. For transient transfection, subconfluent cells are overlayed with a DNA-calcium-phosphate coprecipitate containing the RISC expression plasmid and then allowed to incubate overnight The following day, cells are washed with phosphate-buffered saline and re-fed fresh growth medium for an additional 24-48 hours whereupon standard cell lysates are made for protein analysis via Western blotting. […] Following two weeks of selection in G418, resistant cell “clones” cartying the RISC-His fusion protein are isolated and expanded for further analysis.
Each of three stably transfected cell lines were grown in the presence of 10% FBS for 5 days and on each day total cell numbers were calculated with a hemocytometer. […] A graph illustrating the effects on SMC growth is shown at FIG. 17.

ERK = assay: RISC attenuation of ERK activity (phospho-ERK immunoblot); format: cell-based, rat; settings: RISC expressing cells vs mock cells; 30 minutes after serum stimulation
Method: Stable cell lines prepared according to Example 3 were grown to subconfluence and made quiescent by serum withdrawal (typically 0.5% FBS for 24-48 hours). Cells were then stimulated with serum or a purified growth factor (PDGF-BB) to stimulate the ERK pathway. At selected times following such stimulation, standard cell extracts were prepared to analyze the activation of ERK as measured by its phosphorylated state with a phospho-specific antibody.

`CC1=C(/C=C/C(C)=C/C=C/C(C)=C/C(=O)Nc2ccc(O)cc2)C(C)(C)CCC1` [4-Hydroxyphenylretinamide] was tested, and the “expression of this gene set (the 14 atRA-inducible clones)” value (RASMC [1]) was “elevated”.

For `CC1=C(/C=C/C(C)=C/C=C/C(C)=C\C(=O)O)C(C)(C)CCC1` [13-cis RA], the “expression of this gene set (the 14 atRA-inducible clones)” value (RASMC [1]) was “elevated”.

`C[C@@H]1C[C@@H]([C@H](O)CC2CC(=O)NC(=O)C2)C(=O)[C@@H](C)C1` [CHX, cycloheximide] was tested, and the “CHX Inhibit (atRA-induced mRNA expression)” value (“CHX Inhibit” for short) (RASMC [2]; Cathepsin-L mRNA) was “Yes”, the “CHX Inhibit” value (RASMC [2]; Ceruloplasmin mRNA) was “Yes” and the “CHX Inhibit” value (RASMC [2]; Endolyn mRNA) was “No”. The “CHX Inhibit” value (RASMC [2]; Epithelin mRNA) was “Yes”, the “CHX Inhibit” value (RASMC [2]; Importin α mRNA) was “Yes” and the “CHX Inhibit” value (RASMC [2]; LDH-B mRNA) was “Yes”. The “CHX Inhibit” value (RASMC [2]; LOX-1 mRNA) was “No”, the “CHX Inhibit” value (RASMC [2]; RDH mRNA) was “Yes” and the “CHX Inhibit” value (RASMC [2]; SALF mRNA) was “not blocked and No”. For the same molecule, the “CHX Inhibit” value (RASMC [2]; SSAT mRNA) was “attenuated and completely blocked and Yes”, the “CHX Inhibit” value (RASMC [2]; SSeCKS mRNA) was “not blocked and No” and the “CHX Inhibit” value (RASMC [2]; VCAM-1 mRNA) was “Yes”. The “CHX Inhibit” value (RASMC [2]; tTG mRNA) was “No”, the “CHX Inhibit” value (RASMC [2]; α8-integrin mRNA) was “attenuated and completely blocked and Yes” and the “CHX effect on atRA-increased RISC expression” value (RASMC [3]; 24 hours following treatment) was “No change in RISC expression”. The “CHX effect on atRA-increased RISC expression” value (RASMC [3]; 48 hr following atRA treatment) was “blocked increased RISC expression”, the overt cytotoxicity [4] was “without any signs of overt cytotoxicity” and the “reduction of de novo protein synthesis” value [4] was “more than 90%”.

In the case of `CC1=C(/C=C/C(C)=C/C=C/C(C)=C/C(=O)O)C(C)(C)CCC1` [atRA, all-trans-retinoic acid], the “RISC mRNA following atRA stimulation” value (hCASMC) is reported as “increases in RISC mRNA”, the “time of peak increase in RISC mRNA following atRA stimulation” value (RASMC [3]) is reported as “around 4 days” and the “RISC mRNA levels” value (RASMC [3]; 2.0 μM atRA, fresh atRA applied daily, 5 day time course) is reported as “increased progressively”. The “RISC mRNA following atRA stimulation” value (PAC-1 SMC) was “increases in RISC mRNA”, the “Peak Fold Induction” value (RASMC [1]; Cathepsin-L mRNA, peak at 72 hr, relative to 0 time point) was 3.5 (72 hr) fold and the “Peak Fold Induction” value (RASMC [1]; Ceruloplasmin mRNA, peak at 72 hr, relative to 0 time point) was 2.0 (72 hr) fold. For the same molecule, the “Peak Fold Induction” value (RASMC [1]; Endolyn mRNA, peak at 96 hr, relative to 0 time point) was 2.0 (96 hr) fold, the “Peak Fold Induction” value (RASMC [1]; Epithelin mRNA, peak at 48 hr, relative to 0 time point) was 2.9 (48 hr) fold and the “Peak Fold Induction” value (RASMC [1]; Importin α mRNA, peak at 12 hr, relative to 0 time point) was 4.0 (12 hr) fold. The “Peak Fold Induction” value (RASMC [1]; LDH-B mRNA, peak at 24 hr, relative to 0 time point) was 4.6 (24 hr) fold, the “Peak Fold Induction” value (RASMC [1]; LOX-1 mRNA, peak at 3 hr, relative to 0 time point) was 7.2 (3 hr) fold and the “Peak Fold Induction” value (RASMC [1]; RDH mRNA, peak at 48 hr, relative to 3 hr time point as baseline) was >2.8 (48 hr) fold. The “Peak Fold Induction” value (RASMC [1]; SALF mRNA, peak at 3 hr, relative to 0 time point) was 4.1 (3 hr) fold, the “Peak Fold Induction” value (RASMC [1]; SSAT mRNA, peak at 48 hr, relative to 0 time point) was 4.8 (48 hr) fold and the “Peak Fold Induction” value (RASMC [1]; SSeCKS mRNA, peak at 12 hr, relative to 0 time point) was 4.8 (12 hr) fold. For the same molecule, the “Peak Fold Induction” value (RASMC [1]; VCAM-1 mRNA, peak at 96 hr, relative to 0 time point) was 2.5 (96 hr) fold, the “Peak Fold Induction” value (RASMC [1]; tTG mRNA, peak at 12 hr, relative to 3 hr time point as baseline) was >4.0 (12 hr) fold and the “Peak Fold Induction” value (RASMC [1]; α8-integrin mRNA, peak at 72 hr, relative to 0 time point) was 2.4 (72 hr) fold.

B1: RISC: retinoid inducible serine carboxypeptidase protein, expressed as RISC-His fusion protein in stably transfected PAC1 SMC (protein, UniProt Q920A6 29-452, looked up)
Retinoid-inducible serine …: LNWREQEGKEVWDYVTVREDARMFWWLYYATNPCKNFSELPLVMWLQGGPGGSSTGFGNFEEIGPLDTRLKPRNTTWLQWASLLFVDNPVGTGFSYVNTTDAYAKDLDTVASDMMVLLKSFFDCHKEFQTVPFYIFSESYGGKMAAGISLELHKAIQQGTIKCNFSGVALGDSWISPVDSVLSWGPYLYSVSLLDNKGLAEVSDIAEQVLNAVNKGFYKEATQLWGKAEMIIEKNTDGVNFYNILTKSTPDTSMESSLEFFRSPLVRLCQRHVRHLQGDALSQLMNGPIKKKLKIIPDDVSWGAQSSSVFISMEEDFMKPVIDIVDTLLELGVNVTVYNGQLDLIVDTIGQESWVQKLKWPQLSRFNQLKWKALYTNPKSSETSAFVKSYENLAFYWILKAGHMVPADQGDMALKMMRLVTQQE
modifications: His tag
notes: retinoid inducible serine carboxypeptidase protein, expressed as RISC-His fusion protein in stably transfected PAC1 SMC
With B1 the “cell growth (total cell numbers by hemocytometer)” value (PAC1 SMC) was “significant inhibition in cell growth” and the phospho-ERK activation (ERK) was “activated less phospho-ERK”.
